# Columns and labels:
# [1] = system: resectable gastric and gastroesophageal junction cancer (GC/GEJC); test: Phase III study, interim analysis: surgery rate and R0 resection rate; type: in vivo, human
# Experimental: A randomized, double-blind, placebo-controlled, multicenter, global Phase III study is conducted to assess the efficacy and safety of neoadjuvant-adjuvant durvalumab in combination with FLOT chemotherapy followed by adjuvant durvalumab monotherapy in patients with resectable GC/GEJC (i.e., radical-surgery eligible; >T2 N0-3 M0 or T0-4 N1-3 M0, per AJCC 8th edition). Patients were randomized in a 1:1 ratio to each of the following treatment arms (see FIGS. 1A and 1B): • Treatment Arm A: durvalumab 1500 mg on Day 1+FLOT on Days 1 and 15 of Q4W, both agents being adminstered for 4 cycles (2 cycles neoadjuvant+2 cycles adjuvant) followed by durvalumab 1500 mg on Day 1 Q4W for 10 additional cycles. • Treatment Arm B: placebo on Day 1+FLOT on Days 1 and 15 of Q4W, both agents being adminstered for 4 cycles (2 cycles neoadjuvant+2 cycles adjuvant) followed by placebo on Day 1 Q4W for 10 additional cycles. Surgical eligibility was assessed after neoadjuvant treatment and within 28 days prior to surgery. Surgery performed was gastrectomy or gastroesophagectomy with at least D1 lymphadenectomy (D2 lymphadenectomy recommended), as determined by the attending surgeon based on the intraoperative findings. Surgery was no earlier than 4 weeks but within 8 weeks after the last dose of neoadjuvant therapy. Patients must have recovered from all acute, reversible toxic effects from FLOT chemotherapy (excluding alopecia) and durvalumab (or placebo) that could potentially adversely impact the surgical procedure. Radical gastrectomy or gastroesophagectomy was performed for patients who met the surgery eligibility criteria by a board certified surgeon no earlier than 28 days (4 weeks) but within 56 days (8 weeks) after the last dose of neoadjuvant therapy. (Surgery >8 weeks after the last dose of neoadjuvant therapy may be permitted in consultation with the Sponsor). The recommendations of ESMO and NCCN for the resectability of GC/GEJC was followed. The surgery was be performed by a board certified gastric surgeon, who should perform gastric surgery as a prominent part of his/her practice. Surgery rate is analyzed using the same methodology as described for the pCR rate. R0 resection (margin-negative resection) rate is analyzed using the same methodology as described for the pCR rate. Surgery status is determined by a patient receiving gastrectomy or gastroesophagectomy (yes/no). Surgery rate is defined as the proportion of patients who undergo gastrectomy or gastroesophagectomy. R0 resection is determined by pathology review. R0 resection rate is defined as the proportion of patients who have a confirmed complete resection (i.e., received margin-negative surgery [R]) as assessed by pathology review. Interim analysis was conducted after all randomised patients underwent or were precluded from surgery. Superiority of pCR rate (α=0.1% [2-sided]) by central review was assessed. Surgical and safety outcomes were also assessed.
# [2] = system: resectable gastric and gastroesophageal junction cancer (GC/GEJC); test: Phase III study, interim analysis: pathological response (pCR, pnCR, downstaging) by pathology review after neoadjuvant therapy; type: in vivo, human
# Excerpt: As used herein, the terms “combined pathological complete response/near-complete pathological response” or “pnCR” refer to the proportion of patients who only have single cells or rare small groups of cancer cells present in the resected specimens as determined by pathology review. […] The Ryan Scoring system is based on the ratio of residual cancer cells to the amount of fibrosis, and ranges from 1 (complete or near-complete response) to 3 (poor or not response to neoadjuvant therapy). As used herein, the terms “pathological complete response” or “pathological CR” or “pCR” refer to the proportion of patients who have no residual viable tumor in the resected specimens and as determined by pathology review. As used herein, the terms “event-free survival” or “EFS” refer the time from the date of randomization until the date of one of the following events, whichever occurs first: (1) first documented progression that precludes surgery or requires non-protocol therapy; (2) first evidence of documented recurrence of disease post-surgery in patients who had margin-negative surgery (R0); (3) first evidence of documented progression of disease post-surgery in patients with margin-positive surgery (R1/R2); or (4) death due to any cause. EFS is determined according to RECIST 1.1 per BICR assessment and/or locally by pathology testing.
# (§1) A randomized, double-blind, placebo-controlled, multicenter, global Phase III study is conducted to assess the efficacy and safety of neoadjuvant-adjuvant durvalumab in combination with FLOT chemotherapy followed by adjuvant durvalumab monotherapy in patients with resectable GC/GEJC (i.e., radical-surgery eligible; >T2 N0-3 M0 or T0-4 N1-3 M0, per AJCC 8th edition). Patients were randomized in a 1:1 ratio to each of the following treatment arms (see FIGS. 1A and 1B): • Treatment Arm A: durvalumab 1500 mg on Day 1+FLOT on Days 1 and 15 of Q4W, both agents being adminstered for 4 cycles (2 cycles neoadjuvant+2 cycles adjuvant) followed by durvalumab 1500 mg on Day 1 Q4W for 10 additional cycles. • Treatment Arm B: placebo on Day 1+FLOT on Days 1 and 15 of Q4W, both agents being adminstered for 4 cycles (2 cycles neoadjuvant+2 cycles adjuvant) followed by placebo on Day 1 Q4W for 10 additional cycles.
# Patients were stratified according to geographic region (Asia versus non-Asia), clinical lymph node status (positive versus negative), and PD-L1 expression status (TIP/TAP≥1% versus TIP/TAP<1%). Patients provided a tumor tissue sample at screening (newly acquired or archived sample <3 months old) to determine PD-L1 status using the Tumor and/or Immune Cell Positivity (TIP) scoring method (defined as proportion of tumor area occupied by tumor cells with membrane and immune cells with cytoplasmic/membrane PD-L1 staining at any intensity) by the Ventana SP263 PD-L1 immunohistochemistry (IHC) assay for stratification in which: TIP/TAP≥1% PD-L1 is considered as high, and TIP/TAP<1% PD-L1 is considered low.
# Neoadjuvant therapy begins following completion of the screening period/randomization, and patients undergo resection surgery about 4 to about 8 weeks after the last dose of neoadjuvant therapy (surgery >8 weeks after the last dose of neoadjuvant therapy may be permitted). Adjuvant therapy begins about 4 weeks to about 12 weeks post-surgery (based on the patient's recovery period). In this Phase III study, the administration of durvalumab and a FLOT chemotherapy prior to surgery, followed by further administration of durvalumab and a FLOT chemotherapy after surgery, was investigated to determine if this therapy regimen can improve activity and therefore long-term clinical outcomes for patients with resectable GC and/or resectable GEJC.
# Eligible patients received 1500 mg durvalumab or placebo on Day 1 in combination with FLOT chemotherapy on Days 1 and 15 for 2 cycles Q4W as neoadjuvant therapy. […]
# [3] = Phase III study, interim analysis: adverse events (safety analysis set); type: in vivo
# Experimental: as §1
# An adverse event (AE) can therefore be any unfavorable and unintended sign (e.g., an abnormal laboratory finding), symptom (for example nausea, chest pain), or disease temporally associated with the use of a medicinal product, whether or not considered related to the medicinal product. The term AE is used to include both serious and non-serious AEs and can include a deterioration of a pre-existing medical occurrence. An AE may occur at any time, including run-in or washout periods, even if no study intervention has been administered.
# Definitions of serious adverse event: A serious adverse event is an AE occurring during any study phase (i.e., run-in, treatment, washout, follow-up), that fulfils one or more of the following criteria: results in death, is immediately life-threatening, requires in-patient hospitalization or prolongation of existing hospitalization, results in persistent or significant disability or incapacity, is a congenital abnormality or birth defect, or is an important medical event that may jeopardize the patient or may require medical treatment to prevent one of the outcomes listed above.
# Adverse events are coded using the most recent version of the Medical Dictionary for Regulatory Activities (MedDRA). AEs are presented for each treatment group by SOC and/or PT, covering number and percentage of subjects reporting at least one event and number of events where appropriate. […]
# Safety and tolerability are assessed in terms of AEs (including SAEs), deaths, laboratory data, vital signs, ECGs, and exposure. […]
# Interim analysis was conducted after all randomised patients underwent or were precluded from surgery. Superiority of pCR rate (α=0.1% [2-sided]) by central review was assessed. Surgical and safety outcomes were also assessed.
# [4] = system: tumor growth in a xenograft model; details: T-cell dependent mechanism; cited from earlier work
# PD-L1 = PD-L1 (Homo sapiens, UniProt Q9NZQ7); details: in vitro; cited from earlier work
# Chain of PD-L1 (Q9NZQ7 19-290): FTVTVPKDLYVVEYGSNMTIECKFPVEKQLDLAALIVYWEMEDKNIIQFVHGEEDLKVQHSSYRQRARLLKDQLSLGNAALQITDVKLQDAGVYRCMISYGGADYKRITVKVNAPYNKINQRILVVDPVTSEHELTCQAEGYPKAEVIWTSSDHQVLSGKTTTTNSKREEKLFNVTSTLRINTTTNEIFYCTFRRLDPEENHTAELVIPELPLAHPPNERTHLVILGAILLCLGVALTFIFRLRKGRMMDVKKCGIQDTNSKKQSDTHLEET
# [5] = Central Review (BICR), n = 474 per arm
# [6] = D + FLOT versus P + FLOT, p < 0.00001
# [7] = Investigator Assessment, n = 474 per arm
# [8] = central assessment, n = 474 per arm
substance,measurement,setting,value
"D + FLOT: durvalumab 1500 mg Day 1 Q4W plus FLOT (5-FU + leucovorin + oxaliplatin + docetaxel) Days 1 and 15, neoadjuvant-adjuvant, then durvalumab monotherapy",Surgery rate,[1],87%
same,"Surgery performed, OR (95% CI)",[1]; D + FLOT versus P + FLOT,1.23 (0.85-1.76)
same,"R0 resection, OR (95% CI)","[1]; D + FLOT versus P + FLOT, in pts with surgery",1.00 (0.68-1.48)
same,R0 resection rate,[1]; in patients who underwent surgery,86%
same,"R0 resection, %","[1]; in pts with surgery: D + FLOT n = 430, P + FLOT n = 422",85.8%
same,"Surgery performed, %",[1]; n = 474 per arm,86.7%
same,Combined pCR/near-complete pathological response (pnCR) rate,[2],27%
same,increase in major response versus Placebo+FLOT chemotherapy alone,[2],12.4%
same,pCR Difference in response rate (%),"[2]; Central Review (BICR), Durva + FLOT − Placebo + FLOT",12.0%
same,pCR N Responses,[2]; [5],91
same,pCR Response rate %,[2]; [5],19.2%
same,pCR Odds ratio,"[2]; Central Review (BICR), stratified Cochran-Mantel-Haenszel test, 2-sided p <0.00001",3.08
same,"pCR, OR (95% CI)",[2]; [6],3.08 (2.03-4.67); p < 0.00001
same,"pCR/pnCR, OR (95% CI)",[2]; [6],2.19 (1.58-3.04); p < 0.00001
same,"Major pathological response, Difference in response rate (%)",[2]; Durva + FLOT − Placebo + FLOT,12.4%
same,pCR (BICR) by subgroups,"[2]; FIG. 2, odds ratio>1 favours durvalumab",consistent across evaluable subgroups
same,major pathological response (complete or near-complete response BICR) by subgroups,"[2]; FIG. 3, odds ratio>1 favours durvalumab",consistent across evaluable subgroups
same,pCR Difference in response rate (%),"[2]; Investigator Assessment, Durva + FLOT − Placebo + FLOT",13.3%
same,pCR N Responses,[2]; [7],103
same,pCR Response rate %,[2]; [7],21.7%
same,pCR Odds ratio,"[2]; Investigator Assessment, stratified Cochran-Mantel-Haenszel test, 2-sided p <0.00001",3.03
same,"Downstaging, pN0",[2]; by central review,47%
same,"Downstaging, pT0",[2]; by central review,21%
same,Major pathological response (complete or near-complete) N Responses,[2]; [8],127
same,Major pathological response rate %,[2]; [8],26.8%
same,pCR rate,"[2]; central review, interim analysis",19%
same,"pCR/pnCR, %",[2]; n = 474 per arm,26.8%
same,"pCR, %","[2]; n = 474 per arm, interim analysis",19.2%
same,"Major pathological response, Odds ratio","[2]; stratified Cochran-Mantel-Haenszel test, 2-sided p <0.00001",2.19
same,increase in pCR rate from addition of durvalumab to FLOT,[2]; versus Placebo,12%
same,pCR odds ratio [OR],"[2]; versus Placebo, p<0.00001",3.08
same,"AE Grade 3/4, (%)",[3]; safety analysis set,(68.6) %
same,"Grade 3/4 TRAE, (%)",[3]; safety analysis set,(57.9) %
same,"TRAE (treatment-related AE), (%)",[3]; safety analysis set,(95.2) %
same,"AE, (%)","[3]; safety analysis set: D + FLOT n = 475, P + FLOT n = 469",(98.9) %
Durvalumab: antibody that selectively binds PD-L1 and blocks the binding of PD-L1 to the PD-1 and CD80 receptors,tumor growth,[4],inhibits tumor growth
same,effect on PD-L1-mediated suppression of human T-cell activation,PD-L1,relieve PD-L1-mediated suppression of human T-cell activation in vitro

# Reference: US20250099580A1, “TREATMENT OF GASTRIC CANCER AND/OR GASTROESOPHAGEAL JUNCTION CANCER” (AstraZeneca AB, priority 2023, published 2025)
